Results on one compound are retold here after publication PMC9950073, “Alleviation of arthritis through prevention of neutrophil extracellular traps by an orally available inhibitor of protein arginine deiminase 4” (Scientific Reports, 2023).

One series deals with human neutrophils. Kind of series: In vitro NET assay, human neutrophils. It counts as cell-based. The note with it: 10 μM, ionomycin 4 µM 4 h. The text has this:
All blood samples from healthy donors who participated in this study were obtained after informed consent in accordance with relevant guidelines and regulations given by the ACE Independent ethics committee for Jubilant Biosys Ltd and Office of Clinical Investigations at Boston Children’s Hospital. The ACE Independent ethics committee, Bangalore, approved the use of human whole blood/PBMC/Enriched Subset in Jubilant Biosys Ltd investigations, Drug Controller General of India (DCGI) Reg No. ECR/141/Indt/KA/2013. Briefly, 10 mL K2EDTA vacutainers were used to collect fresh blood from healthy donors (BD vacutainer, Catalog No: BD 367525). A total of 50 ml of blood was taken from a single, healthy human donor. Neutrophils were isolated from human blood using the EasySep Direct Human Neutrophil Isolation Kit, according to the manufacturer's instructions (Stem Cell Technology, Catalog No: 19666). […]
Mouse or human neutrophils were resuspended in HEPES-supplemented phenol red-free RPMI1640 medium and 1.5 × 10^4 cells were seeded per well in a 96-well plate. […] Images were obtained with a Zeiss Axiovert 200 M wide-field fluorescence microscope (Zeiss, Oberkochen, Germany) with the Zeiss AxioVision software. The percentages of H4Cit positive neutrophils and neutrophil extracellular traps (NETs) were calculated by quantifying more than 200 randomly selected cells. […]

Series [1] is described as follows: Plasma protein binding (equilibrium dialysis). The class given is in vitro ADME. The settings on record: pH 7.4, plasma across species, read-out: PPB (% unbound). As for the experimental part: Plasma protein binding: 10 µM of JBI-589 was mixed with plasma from different species (in sodium phosphate buffer, pH 7.4) was added to the plasma side of the 96-well micro-equilibrium dialysis device and sodium phosphate buffer (pH 7.4) was added to the other half of the device. The device was incubated at 37 ± 1 °C for 14 h with constant shaking. After the incubation time, plasma and buffer were collected from either side, quenched (0.5% formic acid in internal standard (IS) containing ACN), centrifuged and supernatant was used for LC–MS/MS analysis. Percent of unbound compound was calculated as follows: Percent unbound: [peak area ratio in buffer side/dilution factor]/peak area ratio in plasma side × 100; Peak area ratio: compound peak area/internal standard peak area.
Background: Equilibrium dialysis compares concentrations on both sides of a semipermeable membrane.

The next series has as its target T1, CYP1A2 (Homo sapiens, UniProt P05177).
T1 construct: from tissue; host or cells: human liver microsomes
T1 sequence (P05177 1-516): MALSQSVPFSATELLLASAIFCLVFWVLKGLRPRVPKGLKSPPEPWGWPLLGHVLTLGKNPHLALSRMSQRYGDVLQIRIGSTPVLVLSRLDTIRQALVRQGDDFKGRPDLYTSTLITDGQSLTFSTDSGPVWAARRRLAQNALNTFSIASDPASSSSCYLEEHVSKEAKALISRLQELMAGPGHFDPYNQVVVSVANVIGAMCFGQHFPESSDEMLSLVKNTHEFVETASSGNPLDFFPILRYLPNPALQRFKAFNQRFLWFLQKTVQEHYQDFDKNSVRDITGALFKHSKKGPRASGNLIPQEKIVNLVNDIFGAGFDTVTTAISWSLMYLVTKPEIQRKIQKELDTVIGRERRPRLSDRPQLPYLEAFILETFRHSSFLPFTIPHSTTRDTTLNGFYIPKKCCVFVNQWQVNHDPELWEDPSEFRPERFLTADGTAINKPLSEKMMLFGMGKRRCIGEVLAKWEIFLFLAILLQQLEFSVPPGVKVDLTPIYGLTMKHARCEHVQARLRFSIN
Kind of series: CYP inhibition in human liver microsome, CYP1A2. The class given is in vitro ADME. As for the experimental part:
(§1) CYP inhibition: Human liver microsome (0.1–0.5 mg/mL for various CYPs) and appropriate probe substrates (2.5–20 µM) were incubated in potassium phosphate buffer with or without JBI-589 for 5 min at 37 °C. The reaction was initiated by addition of NADPH (1 mM), incubated at 37 °C for 10 min and quenched (0.5% Formic acid in internal standard (IS) containing ACN). Samples were then centrifuged and taken for LC–MS/MS analysis. Percent change in metabolite formation for each substrate under above conditions using formula: Percent inhibition = [1 − (test area ratio/control area ratio)] *100.
In general terms: Liver microsomes are a subcellular fraction often used to study metabolism.

A further series deals with T2, CYP2C19 (Homo sapiens, UniProt P33261).
T2 construct: from tissue; host or cells: human liver microsomes
T2 sequence (P33261 whole entry): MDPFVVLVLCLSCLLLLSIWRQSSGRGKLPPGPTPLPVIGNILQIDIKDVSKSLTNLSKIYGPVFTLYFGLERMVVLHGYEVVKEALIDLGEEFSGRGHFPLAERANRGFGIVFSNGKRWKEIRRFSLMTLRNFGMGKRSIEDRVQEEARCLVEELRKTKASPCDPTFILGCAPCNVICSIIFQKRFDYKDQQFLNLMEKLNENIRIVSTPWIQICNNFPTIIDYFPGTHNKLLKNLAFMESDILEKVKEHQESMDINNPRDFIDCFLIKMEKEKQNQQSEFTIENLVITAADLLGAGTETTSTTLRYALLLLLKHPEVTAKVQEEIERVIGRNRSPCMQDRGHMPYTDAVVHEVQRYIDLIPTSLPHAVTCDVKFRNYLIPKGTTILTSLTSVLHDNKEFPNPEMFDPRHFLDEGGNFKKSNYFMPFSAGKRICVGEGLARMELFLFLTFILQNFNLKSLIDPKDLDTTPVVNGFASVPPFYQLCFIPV
The series can be described thus: CYP inhibition in human liver microsome, CYP2C19. The class given is in vitro ADME. As for the experimental part:
as §1

In another series the target is T3, CYP3A4 (Homo sapiens, UniProt P08684).
T3 construct: from tissue; host or cells: human liver microsomes
T3 sequence (P08684 whole entry): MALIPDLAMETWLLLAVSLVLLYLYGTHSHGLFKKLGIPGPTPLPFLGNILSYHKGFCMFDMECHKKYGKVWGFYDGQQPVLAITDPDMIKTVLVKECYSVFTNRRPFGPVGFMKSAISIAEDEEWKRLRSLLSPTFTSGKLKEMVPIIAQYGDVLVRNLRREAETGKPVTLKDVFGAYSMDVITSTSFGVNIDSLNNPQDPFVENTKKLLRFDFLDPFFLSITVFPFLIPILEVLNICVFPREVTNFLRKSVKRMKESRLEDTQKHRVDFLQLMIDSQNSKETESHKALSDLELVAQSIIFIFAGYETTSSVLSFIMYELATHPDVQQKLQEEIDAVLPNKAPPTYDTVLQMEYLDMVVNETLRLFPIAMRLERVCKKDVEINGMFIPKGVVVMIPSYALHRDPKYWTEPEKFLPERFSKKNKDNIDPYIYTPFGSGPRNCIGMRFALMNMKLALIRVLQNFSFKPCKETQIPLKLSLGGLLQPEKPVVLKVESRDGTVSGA
Kind of series: CYP inhibition in human liver microsome, CYP3A4. It counts as in vitro ADME. As for the experimental part:
as §1

Setting [2] is: predicted from % inhibition, text says major CYPs tested.

Each structure is given as a SMILES string.

For orientation: inhibition means how much of the control response was suppressed. In general, IC50 refers to the concentration needed to halve the response being measured. As for `Cc1c(-c2cc3ccccc3n2Cc2ccc(F)cc2)nc2cc(C(=O)N3CCC[C@@H](N)C3)ccn12` [JBI-589, (R)-(3-aminopiperidin-1-yl)(2-(1-(4-fluorobenzyl)-1H-indol-2-yl)-3-methylimidazo[1,2-a]pyridin-7-yl)methanone], the H4Cit positivity result with human neutrophils is recorded as “the same effect was confirmed”. Further, the NET formation entry in the series with human neutrophils was “the same effect was confirmed”. In addition, the fraction unbound at 14 h, 10 µM in series [1] fell in the range of 0.05 to 0.1. For the same compound, the inhibition at 10 min, 10 µM on CYP1A2 (human liver microsomes, 10 µM, human liver microsome, read-out: CYP1A2 inhibition (% inh @10 µM)) was below 50%; at CYP2C19 (human liver microsomes, 10 µM, human liver microsome, read-out: CYP2C19 inhibition (% inh @10 µM)), below 50%; at CYP3A4 (human liver microsomes, 10 µM, human liver microsome, read-out: CYP3A4 inhibition (% inh @10 µM)) it was below 50%. Besides, the IC50 on CYP1A2 (setting [2]), on CYP2C19 (setting [2]) and at CYP3A4 (setting [2]) was above 10 µM in each case.
